The results in this text go back to article PMC9501280, “Anti-Inflammatory Activity of Soluble Epoxide Hydrolase Inhibitors Based on Selenoureas Bearing an Adamantane Moiety” (International Journal of Molecular Sciences, 2022).

≈ marks a conversion by molar mass, not a printed value. Where two headings read alike, the source gives them in different places. Bounds are passed on as bounds.

In data set [1] the target is T1, human recombinant sEH (Homo sapiens, UniProt P34913).
T1 sequence (P34913 1-555): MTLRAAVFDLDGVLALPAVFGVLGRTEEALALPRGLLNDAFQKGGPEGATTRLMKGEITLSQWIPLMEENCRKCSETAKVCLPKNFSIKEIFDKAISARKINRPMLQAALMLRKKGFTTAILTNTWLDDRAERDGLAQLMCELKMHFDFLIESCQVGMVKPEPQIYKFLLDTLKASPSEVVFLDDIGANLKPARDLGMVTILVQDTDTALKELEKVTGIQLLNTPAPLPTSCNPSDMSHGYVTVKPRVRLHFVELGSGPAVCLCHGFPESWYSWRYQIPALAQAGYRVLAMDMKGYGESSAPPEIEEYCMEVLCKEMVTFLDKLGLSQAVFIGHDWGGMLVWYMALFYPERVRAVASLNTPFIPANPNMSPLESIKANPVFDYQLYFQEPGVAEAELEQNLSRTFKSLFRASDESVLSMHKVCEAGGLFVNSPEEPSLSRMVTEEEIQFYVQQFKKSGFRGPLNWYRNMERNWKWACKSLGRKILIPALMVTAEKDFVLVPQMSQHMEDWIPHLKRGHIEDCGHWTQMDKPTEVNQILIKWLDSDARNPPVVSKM
Briefly: Human sEH inhibition, kinetic fluorescent assay. The note with it: kinetic fluorescent assay; means of three separate experiments; read-out: Human sEH IC50. The data set is classed as biochemical.

Data set [2] has as its system LPS-stimulated C57bl/6j peritoneal macrophages. The experiment in a line: Suppression of NO synthesis in LPS-stimulated peritoneal macrophages (Griess). The data set is classed as cell-based, mice. The note with it: for IC50: Mus musculus, Peritoneal macrophage, read-out: NO Synthesis, IC50 ± SE. The text has this:
For screening designed compounds according to their probable ability to limit inflammation, we used a test on the inhibition of LPS-induced activation of primary murine macrophages. The most prominent anti-inflammatory activity, defined as the suppression of nitric oxide synthesis by LPS-stimulated macrophages, was evident for compounds 4a and 5b. At the same time, for 4a, the cytotoxic concentration was 4.7–18.4 times higher than the effective anti-inflammatory concentration. […] According to the data obtained, there is no direct correlation between the efficiency of the inhibition of sEH and NO synthesis, which requires further studies of the anti-inflammatory activity of the investigated compounds.
(§1) Peritoneal macrophages (PM) were isolated from the peritoneal exudate of 30 male C57bl/6j mice. To accumulate PM, 1 mL of 3% peptone solution was injected intraperitoneally. After 3 days, the mice were euthanized by cervical dislocation. Cells of peritoneal exudate were obtained by aseptic washing of the abdominal cavity with 5 mL of sterile Hanks’s solution (+4–6 °C) without calcium and magnesium ions. The total number and viability of cells were assessed in a Goryaev counting chamber (Russia) with a 0.4% trypan blue staining (Sigma-Aldrich, St. Louis, MO, USA). The cell concentration was adjusted to 1.0 × 10^6 cells/mL in DMEM (Gibco) supplemented with 2 mM L-glutamine (Gibco), 10% heat-inactivated fetal bovine serum (BioClot, Passau, Germany), 100 U/mL penicillin and […] streptomycin (Gibco) and plated 200 μL/well in 96-well transparent plates (SPL Life Sciences Co., Ltd., Pochon, Korea). After 2 h at 37 °C in a humidified atmosphere with 5% CO2, wells were washed to remove nonadherent cells. After 24 h of incubation, 20 μL of the supernatants were substituted with 20 μL of solutions of the test compounds, followed with E. coli O127:B8 LPS (100 ng/mL final concentration) after 30 min. Experiments were run in 3 independent replicates.
The accumulation of nitrite anion (a stable decomposition product of NO produced by iNOS) in the supernatants was determined using a standard Griess reagent. Briefly, 50 μL of supernatants collected 22 h after incubation of PM with the test and control compounds were mixed with 50 μL of 1% sulfonamide in 2.5% H3PO4 and 50 μL of 0.1% N-(1-naphthyl) ethylenediamine in 2.5% H3PO4. After incubation at 23 °C for 10 min. in an orbital shaker, the optical density was determined at a wavelength of 550 nm with a microplate reader Infinite M200 PRO (Tecan, Austria).

A short description of data set [3]: MTT cytotoxicity on peritoneal macrophages. The data set is classed as cell-based, mice. The note with it: male, C57bl/6j, mouse, 24 h incubation, read-out: MTT CC50 ± SE. The method, then: as §1
(§2) The activity of lactate dehydrogenase (LDH) in a cell culture medium served as a marker of membrane permeability and cell death. Aliquots of supernatants were taken after 24 h of inoculation with test compounds, mixed with 250 μL of […] NADH solution in 54 mM phosphate-buffered saline (pH 7.5). Then, 25 μL of a 6.48 mM pyruvate solution was added to the mixture. The optical density was followed at a wavelength of 340 nm for 20 min. The MTT test was performed 24 h after the incubation of cells with the tested compounds. Briefly, 20 μL of MTT solution was added to each well and incubated at 37 °C in a humidified atmosphere containing 5% CO2 for 4 h. The culture medium was aspirated, the cells were lysed and formazan crystals dissolved in 150 μL of DMSO. The plates were shaken at room temperature for 10 min, and the optical density was measured in a microplate reader Infinite M200 PRO (Tecan Group Ltd., Männedorf, Switzerland) at a wavelength of 565 nm.

Data set [4] deals with C57bl/6j peritoneal macrophages. Briefly: MTT cytotoxicity on peritoneal macrophages. In kind it is cell-based, mice. The note with it: Mus musculus, Peritoneal macrophage, read-out: EC50 ± SEM, C57bl/6j. The method, then: as §1, §2
A short description of data set [5]: LDH release cytotoxicity on peritoneal macrophages. In kind it is cell-based, mice. The note with it: male, C57bl/6j, mouse, 24 h incubation, read-out: LDH CC50 ± SE. The method, then:
as §1
as §2, with “Briefly, 20 μL of MTT solution was added to each well and incubated at 37 °C in a humidified atmosphere containing 5% CO2 for 4 h. The culture medium was aspirated, the cells were lysed and formazan crystals dissolved in 150 μL of DMSO.” left out
On the technique in general: LDH leaks from cells whose membrane has failed.

Data set [6] relates to human fibroblast cells (MRC-5). The experiment in a line: MTT test with human fibroblast cells. In kind it is cell-based. The note with it: read-out: EC50 ± SEM, MRC-5. The method, then: The studied compounds were added in concentrations of 1, 3, 6, 12, 25, 50, and 100 μM.
Human fibroblast cells (MRC-5) were used in this study. The cells were cultured in the DMEM medium that contained 10% embryonic calf serum in a CO2 incubator at 37 °C. The tested compounds were dissolved in DMSO and added to the cellular culture at the required concentrations. Three wells were used for each concentration. The cells that were incubated without the compounds were used as a negative control, and doxorubicin was used as the positive one. Cells were placed on 96-well microliter plates and cultivated at 37 °C in 5% CO2/95% air for 72 h. The cell viability was assessed through an MTT (3-(4,5-dimethylthiazol-2-yl)-2,5-phenyl-2H-tetrazolium bromide) conversion assay. A total of 1% MTT was added to each well. Three hours later, isopropanol was added and mixed for 15 min. Optical density (OD) of the samples was measured on a ThermoFischer multi-well spectrophotometer at a wavelength of 450 nm. […] The experimental results are given as average values obtained from three independently conducted experiments.
(Formazan colour is commonly taken as a measure of viable cells.)

Data set [7] has as its system E. coli PQ37. Briefly: SOS chromotest. In kind it is cell-based. The note with it: induction factor. The method, then: For the final safety check of selenoureas, the SOS chromotest was carried out. […] The results are presented as the mean value of induction factor I (c) ± SEM based on the results of three independent experiments, each of which included three replicates (Table 5).
The SOS chromotest was carried out according to the standard procedure, with recommended additions. The E. coli PQ37 strain was provided by P. Quillardet (Paris, France). The test compounds were dissolved in dimethyl sulfoxide (DMSO) (also used as a negative control) and added to the bacterial medium in the required concentrations; the concentration of the injected solutions was 1% by volume.

Data set [8] can be described thus: Solubility in sodium phosphate buffer. In kind it is physicochemical. The note with it: aqueous buffer, kinetic from dmso stock; sodium phosphate buffer (pH 7.4, 0.1 M) containing 1% DMSO. The method, then: To our knowledge, no systematic studies of selenoureas as sEH inhibitors have been performed previously. The potency of the compounds was determined against the human recombinant sEH and their solubility assessed in phosphate-buffered saline (Table 1).

`[Se]=C(NCc1ccccc1)NCC12CC3CC(CC(C3)C1)C2` [5b, 1-[(Adamantan-1-yl)methyl]-3-benzylselenourea] had a melting point of 158 to 159 °C. Also, in [1], the IC50 was determined as 0.2 µM. Further, in [2] (CC50 (MTT, LDH) over NO synthesis IC50, peritoneal macrophages), the “cytotoxic concentration versus effective anti-inflammatory concentration” value is on record as “comparable”. Besides, in data set [2] (22 h), the IC50 was determined as 27.8 ± 5.2 µM. In [3], the CC50 at 24 h amounted to 17.7 ± 5.7 µM. For the same compound, the EC50 in data set [4] stood at 17.7 ± 5.66 µM. In addition, the CC50 at 24 h in data set [5] turned out to be 20.4 ± 5.3 µM. Also, the EC50 in data set [6] (MRC5, 72 h) is 3.04 ± 0.66 µM. In addition, the “I(c) ± SE, 10 µM” value in data set [7] (compound 10 µM) is 1.12 ± 0.18. The “I(c) ± SE, 25 µM” value in data set [7] (compound 25 µM) was found to be 0.95 ± 0.13. For the same compound, the “I(c) ± SE, 50 µM” value in [7] (compound 50 µM) came to 0.99 ± 0.11. Also, the “I(c) ± SE, 100 µM” value in data set [7] (compound 100 µM) was determined as 0.97 ± 0.08.

Take `CC(NC(=[Se])NCc1ccccc1)C12CC3CC(CC(C3)C1)C2` (centres unmarked) [5c, 1-[1-(Adamantan-1-yl)ethyl]-3-benzylselenourea]: the melting point lay in the range of 154 to 155 °C. Moreover, the IC50 in [1] was 0.274 µM. Besides, the solubility in data set [8] was found to be 110 ± 20 µM (≈ 41.3 µg/mL).

Compound `[Se]=C(NCCC12CC3CC(CC(C3)C1)C2)NCc1ccccc1` [5d, 1-[2-(Adamantan-1-yl)ethyl]-3-benzylselenourea] returned a melting point of 142 to 143 °C. Also, in [1], the IC50 was 0.0343 µM. For the same compound, the solubility in data set [8] is 140 ± 20 µM (≈ 52.6 µg/mL).

In the case of `[Se]=C(NCc1ccccc1)Nc1ccc(C23CC4CC(CC(C4)C2)C3)cc1` [5e, 1-[4-(Adamantan-1-yl)phenyl]-3-benzylselenourea], the melting point fell in the range of 147 to 148 °C. The IC50 in [1] is 0.204 µM. The compound further registered a solubility in data set [8] of 200 ± 20 µM (≈ 84.7 µg/mL).

`CC12CC3CC(C)(C1)CC(NC(=[Se])NCc1ccccc1)(C3)C2` [5f, 1-(3,5-Dimethyladamantan-1-yl)-3-benzylselenourea] had a melting point of 112 to 113 °C. In addition, in [1], the IC50 was 0.0485 µM.

For the compound `[Se]=C(NCc1ccccc1)NC1C2CC3CC(C2)CC1C3` (centres unmarked) [5g, 1-(Adamantan-2-yl)-3-benzylselenourea], the melting point was in the range of 139 to 140 °C. For the same compound, the IC50 in data set [1] was determined as 0.12 µM. Also, the solubility in data set [8] was found to be 110 ± 10 µM (≈ 38.2 µg/mL).

Turning to `C[C@@H]1C[C@H]2[C@@H]3CCC4=CC(=O)C=C[C@]4(C)[C@@]3(F)[C@@H](O)C[C@]2(C)[C@@]1(O)C(=O)CO` [Dexamethasone, reference compound], the IC50 in data set [2] (LPS 100 ng/mL, supernatants after 22 h) was determined as 0.003 ± 0.001 µM. Also, the half-maximal cytotoxic concentration (CC50) at 24 h in [3] (primary peritoneal macrophages) and in [5] (primary peritoneal macrophages) was > 100 µM throughout. Moreover, the EC50 in data set [4] (MTT, peritoneal macrophages of C57bl/6j mice) is > 100 µM.

As for `CC(=O)N1CCC(NC(=O)NC23CC4CC(CC(C4)C2)C3)CC1` [compound 1153, reference compound], the solubility in data set [8] worked out at 970 ± 60 µM (≈ 310 µg/mL).

As to `COc1cccc2c1C(=O)c1c(O)c3c(c(O)c1C2=O)C[C@@](O)(C(=O)CO)C[C@@H]3O[C@H]1C[C@H](N)[C@H](O)[C@H](C)O1` [doxorubicin, reference compound], the EC50 in data set [6] (MRC5, MTT, 72 h) was determined as 2.41 ± 0.15 µM.

As a reminder, the IC50 is the concentration that gives 50% inhibition. Usually CC50 stands for the concentration at which the toxic effect on the cells reaches its halfway point. The term melting point denotes the temperature, or range, at which the solid turns liquid. Broadly, the solubility is how much of the substance goes into solution per volume.
